Measured values reported in PubChem BioAssay (NCI).
Values joined by “and” are separate entries in the source; they are usually repeats but may differ in a detail not shown here. Equal entries are not always repeated.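 Tested at 5 concentrations; 48 h exposure; 96-well plates; endpoints linearly interpolated, else capped at highest concentration. GI50: concentration for 50% inhibition of growth. TGI: concentration producing complete growth inhibition.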

Experiments:
Experiment in all cases: growth of human tumour cells (NCI), 48 h
CAKI-1 renal = test system: CAKI-1 renal
EKVX NSCLC = test system: EKVX NSCLC
HCC-2998 colon = test system: HCC-2998 colon
LOX IMVI melanoma = test system: LOX IMVI melanoma
OVCAR-8 ovarian = test system: OVCAR-8 ovarian
RXF 393 renal = test system: RXF 393 renal
SF-539 CNS = test system: SF-539 CNS
SK-MEL-28 melanoma = test system: SK-MEL-28 melanoma
TK-10 renal = test system: TK-10 renal
UO-31 renal = test system: UO-31 renal

Structure (SMILES) | GI50 (CAKI-1 renal) | TGI (CAKI-1 renal) | GI50 (EKVX NSCLC) | TGI (EKVX NSCLC) | GI50 (HCC-2998 colon) | TGI (HCC-2998 colon) | GI50 (LOX IMVI melanoma) | TGI (LOX IMVI melanoma) | GI50 (OVCAR-8 ovarian) | TGI (OVCAR-8 ovarian) | GI50 (RXF 393 renal) | TGI (RXF 393 renal) | GI50 (SF-539 CNS) | TGI (SF-539 CNS) | GI50 (SK-MEL-28 melanoma) | TGI (SK-MEL-28 melanoma) | GI50 (TK-10 renal) | TGI (TK-10 renal) | GI50 (UO-31 renal) | TGI (UO-31 renal)
CC[PH+](CC)CC.[Cl][Au] | 1.18 µM | 2.64 µM | 1.42 µM | 2.91 µM | 6.78 µM | 12 µM | 1.4 µM | 2.91 µM | 2.19 µM | 5.21 µM | 0.447 µM | 1.66 µM | 2.35 µM | 7.36 µM | 0.78 µM | 2.35 µM | 2 µM | 3.51 µM | 6.21 µM | 10.7 µM
COc1ccc(-c2cc(=O)c3c(O)c(OC)c(OC)c(OC)c3o2)cc1 |  | > 100 µM |  | > 100 µM |  | > 20.4 µM |  | > 100 µM |  | > 100 µM |  | 62.2 µM |  | > 100 µM |  | > 100 µM |  | > 100 µM |  | > 100 µM
C[C@H]1C=C2C(=O)O[C@H]3CC[C@@H](C1)[C@@]23O |  | 14.8 µM |  | 8.36 µM |  | 26.8 µM |  | 10.3 µM |  | 13.8 µM |  | 9.02 µM |  | 4.25 µM |  | 16.1 µM |  | 8 µM |  | 32.1 µM
CC(=O)Oc1ccc2c(c1)C(=O)c1nc(C)c(C)nc1C2=O |  | > 100 µM |  | > 78.6 µM |  | > 100 µM |  | > 100 µM |  | > 100 µM |  | 96.4 µM |  | 55.4 µM |  | > 100 µM |  | > 100 µM |  | > 100 µM
COc1cc2nccc(Oc3ccc(NC(=O)c4cn(C(C)C)c(=O)n(-c5ccc(F)cc5)c4=O)cc3F)c2cc1OC | 1.91 µM | 6 µM | > 30.1 µM | > 100 µM | > 100 µM | > 100 µM | > 100 µM | > 100 µM | > 48.4 µM | > 100 µM | > 21.1 µM | > 100 µM | 1.6 µM | 3.38 µM | 3.19 µM | 18.1 µM | > 70.7 µM | > 100 µM | 3.65 µM | > 40 µM
CC(C)c1ccc(NC(=O)Cc2ccc(Nc3ncnc4cc(-c5cnn(CCN(C)C)c5)ccc34)cc2)cc1 | 1.18 µM | 2.88 µM | 2.42 µM | 9.23 µM | 1.66 µM | 3.42 µM | 1.36 µM | 3.37 µM | 1.29 µM | 3.54 µM | 1.3 µM | 3.43 µM | 0.571 µM | 2.39 µM | > 10 µM | > 10 µM | 1.72 µM | 3.79 µM | 3.02 µM | > 10 µM
O=C[C@@H](CO)O[C@H](C=O)n1cnc2c(=O)[nH]cnc21 |  | 1590 µM |  | 1320 µM |  | 1200 µM |  | 534 µM |  | 2020 µM |  | 1470 µM |  | 2230 µM |  | 1530 µM |  | 1830 µM |  | 1420 µM
COc1cc(C(=O)c2cocc2C(=O)c2ccc3c(c2)OCO3)cc(OC)c1OC |  | 35.7 µM |  | > 58.3 µM |  | 16.9 µM |  | 30 µM |  | 30 µM |  | 4.43 µM |  | 1.45 µM |  | > 49.5 µM |  | 47.2 µM |  | 33.9 µM
CCn1c2ccccc2c2cc(C(=O)c3ccc(C)c4ccccc34)ccc21 | 1.61 µM | > 100 µM | 0.528 µM | > 100 µM | 0.549 µM | 3.8 µM | 0.323 µM | 1.62 µM | 0.493 µM | > 100 µM | 0.35 µM | 2.71 µM | 0.255 µM | 0.802 µM | 0.477 µM | > 100 µM | 0.658 µM | > 100 µM | 0.716 µM | > 100 µM
CC1(C)CCC[C@]2(C)c3ccccc3C(=O)CC12 (stereo not given in full) | 83.1 µM | > 100 µM | 42.9 µM | > 100 µM | 20.8 µM | 81.4 µM | 38.4 µM | > 100 µM | 32.1 µM | > 100 µM | 82.1 µM | > 100 µM | 27.1 µM | 75.7 µM | 64.6 µM | > 100 µM | 69 µM | > 100 µM | 53.1 µM | > 100 µM
O=C(/C=C/C12c3ccccc3C(c3ccccc31)C1C(=O)NC(=O)C12)c1ccccc1 (stereo not given) | 1.49 µM | 3.68 µM | 1.75 µM | 4.39 µM | 1.7 µM | 3.27 µM | 1.63 µM | 3.12 µM | 1.72 µM | 5.1 µM | 1.5 µM | 2.94 µM | 1.63 µM | 3.02 µM | 1.88 µM | 3.63 µM | 2.79 µM | 6.34 µM | 1.53 µM | 2.88 µM
CNC(=O)c1ccccc1Nc1nc(Nc2ccc3c(c2OC)CCC[C@H](N2CCN(CCO)CC2)C3)ncc1Cl | 0.69 µM and 1.06 µM | 13.1 µM and > 10 µM | 1.75 µM and 1.72 µM | 13.7 µM and > 10 µM | 1.89 µM and 1.56 µM | 11.5 µM and > 10 µM | 1.31 µM and 1.09 µM | 2.77 µM and 2.48 µM | 4.73 µM and 3.25 µM | 19.9 µM and > 10 µM | 1.68 µM and 1.98 µM | 7.3 µM and > 10 µM | 1.95 µM and 4.38 µM | 5.31 µM and > 10 µM | 1.39 µM and 1.73 µM | 3.11 µM and 4.46 µM | 2.97 µM and 0.656 µM | 18.2 µM and > 10 µM | 1.38 µM and 0.714 µM | 11.6 µM and 7.69 µM
Cc1cc(O)c(-c2ccc([C@@H](C)CN(C)C)cc2)c2c1[nH]c(=O)c1sccc12 | 1.82 µM | 33.4 µM | 0.585 µM | 6.23 µM | 1.06 µM | 12.6 µM | 0.785 µM | 27.5 µM | 0.983 µM | 34.9 µM | 0.167 µM | 0.53 µM | 0.219 µM | 1.97 µM | 1.33 µM | 5.56 µM | 0.647 µM | 5.87 µM | 0.287 µM | 1.88 µM
N#Cc1cccc(C2C3=C(COC3=O)N(CCO)c3cc4c(cc32)OCO4)c1 (stereo not given) | 1.32 µM | > 50 µM | 2.78 µM | > 50 µM | 4.6 µM | > 50 µM | 2.42 µM | > 50 µM | 2.88 µM | > 50 µM | 1.26 µM | 4.54 µM | 1.53 µM | 8.52 µM | 25.5 µM | > 50 µM | 15.4 µM | > 50 µM | 2.63 µM | > 50 µM
C=C1CCC2C3(C)COC(c4ccccc4Cl)OC3CCC2(C)C1/C=C/C1=CCOC1=O (stereo not given) | 4.08 µM | > 100 µM | 2.82 µM | > 100 µM | 21.1 µM | > 100 µM | 6.77 µM | > 100 µM | 13.8 µM | > 100 µM | > 100 µM | > 100 µM | 24 µM | > 100 µM | > 100 µM | > 100 µM | 19 µM | > 100 µM | 6.95 µM | > 100 µM
CN(C)CCCNc1nc2ccccc2c2[nH]c3ccccc3c12 | 1.09 µM | 3.01 µM | 1.38 µM | 4.75 µM | 0.251 µM | 0.942 µM | 0.75 µM | 1.64 µM | 0.917 µM | 6.65 µM | 1.23 µM | 3.55 µM | 0.654 µM | 1.9 µM | 2.04 µM | 5.84 µM | 1.45 µM | 4.04 µM | 1.69 µM | 10.9 µM
CN1CCN(CCCOc2cc(O)c3c(=O)cc(-c4ccccc4)oc3c2)CC1 | 15.1 µM | 33.4 µM | 37.6 µM | > 100 µM | 14.3 µM | 27.3 µM | 14.1 µM | 28.4 µM | 37.1 µM | > 100 µM | 30.2 µM | 84 µM | 17.2 µM | 33.1 µM | 16.1 µM | 30.6 µM | 20.5 µM | 48.3 µM | 16.9 µM | 47.3 µM
CS(=O)(=O)N(c1cc(-c2ccc3ncnc(Nc4ccc(F)c(Cl)c4)c3c2)cnc1Cl)S(C)(=O)=O | 0.553 µM | 3.98 µM | 0.649 µM | 5.19 µM | 1.58 µM | 8.43 µM | 0.879 µM | 4.73 µM | 2.17 µM | 15.5 µM | 0.711 µM | 3.4 µM | 1.05 µM | 4.83 µM | 0.54 µM | 4.93 µM | 0.44 µM | 3.73 µM | 0.27 µM | 2.99 µM
Nc1cccc2c1C(=O)c1cccc(NC(=O)c3ccccc3)c1C2=O | 0.229 µM | 3.01 µM | 0.421 µM | 4.52 µM | 2.79 µM | > 100 µM | 0.565 µM | > 100 µM | 0.784 µM | > 38.8 µM | 0.363 µM | 2.95 µM | 0.292 µM | 13 µM | 1.11 µM | 21 µM | 1.13 µM | 8.13 µM | 0.474 µM | > 100 µM
CCCCn1c(=O)c(/C=C/C(=O)/C=C/c2cc3ccccc3n(CCCC)c2=O)cc2ccccc21 | 1.87 µM | 3.27 µM | 1.88 µM | 4.42 µM | 1.01 µM | 2.26 µM | 1.24 µM | 2.7 µM | 1.5 µM | 4.12 µM | 1.8 µM | 3.32 µM | 1.47 µM | 3.57 µM | 1.81 µM | 3.48 µM | 1.78 µM | 3.21 µM | 1.53 µM | 3.21 µM
Cc1cccc2c1[nH]c(=O)c1c3ccccc3cn21 | 2.19 µM | 8.75 µM | 5.61 µM | 44.6 µM | 4.6 µM | 16.3 µM | 6.22 µM | 18.4 µM | 3.57 µM | > 100 µM | 9.19 µM | 38.4 µM | 3.85 µM | 15.8 µM | 6.86 µM | > 100 µM | 26.8 µM | 86.2 µM | 5.66 µM | > 100 µM
N#Cc1cc(S(=O)(=O)Nc2nc3ccccc3o2)c(SCc2ccccc2)cc1Cl | 24.7 µM | 65.2 µM | 18.4 µM | 42.7 µM | 19 µM | 34.3 µM | 18.7 µM | 36.5 µM | 5.1 µM | 63.2 µM | 23.9 µM | 53.1 µM | 17.9 µM | 33.3 µM | 18.9 µM | 40.4 µM | 52 µM | > 100 µM | 20.4 µM | 39.2 µM
